Assay results reported in BindingDB's records for doi:10.1016/s0960-894x(03)00474-8 (Merck Research Laboratories, 2003).

Biological target: T1, Dimer of Gag-Pol polyprotein [489-587,Q496K] (Human immunodeficiency virus 1, UniProt P12497, Q496K)
T1 construct: 489-587
Experiment: Protease Inhibition Assay
Settings: pH 5.5; 30 °C
Experimental: Assay of HIV protease inhibition was performed by peptide cleavage using the substrate Val-Ser-Gln-Asn-beta-naphthylalanine*Pro-Ile-Val. Products of the cleavage reaction were quantified by HPLC detection, and data were fit to nonlinear least squares equations for determination of steady-state Michaelis-Menten kinetics.

Work on CC(C)(c1ccc(-c2ccncc2)o1)N1CCN(C[C@@H](O)C[C@@H](Cc2ccccc2)C(=O)N[C@H]2c3ccccc3OC[C@H]2O)[C@H](C(=O)NCC(F)(F)F)C1 [(2S)-1-[(2S,4R)-4-benzyl-2-hydroxy-4-{[(3S,4S)-3-hydroxy-3,4-dihydro-2H-1-benzopyran-4-yl]carbamoyl}butyl]-4-{2-[5-(pyridin-4-yl)furan-2-yl]propan-2-yl}-N-(2,2,2-trifluoroethyl)piperazine-2-carboxamide] yielded an IC50 of 0.05 nM.

For CC(C)(c1ncc(-c2cncc(Cl)c2)o1)N1CCN(C[C@@H](O)C[C@@H](Cc2ccccc2)C(=O)N[C@H]2c3ccccc3OC[C@H]2O)[C@H](C(=O)NCC(F)(F)F)C1 [(2S)-1-[(2S,4R)-4-benzyl-2-hydroxy-4-{[(3S,4S)-3-hydroxy-3,4-dihydro-2H-1-benzopyran-4-yl]carbamoyl}butyl]-4-{2-[5-(5-chloropyridin-3-yl)-1,3-oxazol-2-yl]propan-2-yl}-N-(2,2,2-trifluoroethyl)piperazine-2-carboxamide], the IC50 was 0.02 nM.
